Measured values as given in US20150141381A1, “TETRACYCLINE COMPOUNDS HAVING TARGET THERAPEUTIC ACTIVITIES” (Paratek Pharmaceuticals, Inc., priority 2001, published 2015).

Experiments:
[1] = test system: S. aureus RN450; experiment: In Vitro Anti-Bacterial Activity Assay (MIC), gram positive; assay type: cell-based; conditions: Staphylococcus aureus, RN450, 18 h, MIC class, Table 3 (Continued); read-out: Gram+ activity
[2] = test system: E. coli mL308 225; experiment: In Vitro Anti-Bacterial Activity Assay (MIC), gram negative; assay type: cell-based; conditions: Escherichia coli, ML308225, 18 h, MIC class, Table 3 (Continued); read-out: Gram− activity

Cc1c2c(c(O)c3c(O)cccc13)C(=O)[C@]1(O)C(=O)C(C(N)=O)=C(O)[C@@H](N(C)C)[C@@H]1C2
MIC [1]: < 4 µg/mL
MIC [2]: < 4 µg/mL

CC1c2cccc(O)c2C(=O)C2=C(O)[C@]3(O)C(=O)C(C(N)=O)=C(O)[C@@H](N(C)C)[C@@H]3[C@@H](O)[C@@H]21 (stereo partly drawn)
MIC [1]: < 4 µg/mL
MIC [2]: > 4 µg/mL

C#Cc1cc(N(C)C)c2c(c1O)C(=O)C1=C(O)[C@]3(O)C(=O)C(C(N)=O)=C(O)C(N(C)C)[C@@H]3C[C@@H]1C2 (stereo partly drawn)
MIC [1]: < 4 µg/mL
MIC [2]: > 4 µg/mL

CN(C)Cc1ccc(-c2ccc(O)c3c2C[C@H]2C[C@H]4C(N(C)C)C(O)=C(C(N)=O)C(=O)[C@@]4(O)C(O)=C2C3=O)cc1 (stereo partly drawn)
MIC [1]: < 4 µg/mL
MIC [2]: < 4 µg/mL

CN(C)c1cc(NC(=O)Nc2ccccc2)c(O)c2c1C[C@H]1C[C@H]3C(N(C)C)C(O)=C(C(N)=O)C(=O)[C@@]3(O)C(O)=C1C2=O (stereo partly drawn)
MIC [1]: < 4 µg/mL
MIC [2]: < 4 µg/mL

CCCCCc1ccc(O)c2c1C[C@H]1C[C@H]3C(N(C)C)C(O)=C(C(N)=O)C(=O)[C@@]3(O)C(O)=C1C2=O (stereo partly drawn)
MIC [1]: < 4 µg/mL
MIC [2]: < 4 µg/mL

CN(C)c1cc(CN2CCCCC2)c(O)c2c1C[C@H]1C[C@H]3C(N(C)C)C(O)=C(C(N)=O)C(=O)[C@@]3(O)C(O)=C1C2=O (stereo partly drawn)
MIC [1]: < 4 µg/mL
MIC [2]: > 4 µg/mL

CC1c2cccc(O)c2C(=O)C(C(=O)O)C1[C@H](O)[C@@H]1CC(=O)C(C(N)=O)=C(O)[C@H]1N(C)C (stereo partly drawn)
MIC [1]: > 4 µg/mL
MIC [2]: > 4 µg/mL

CCCC(=O)C[C@@H]1[C@H]2[C@H](N(C)C)C(O)=C(C(N)=O)C(=O)[C@@]2(O)C(O)=C2C(=O)c3c(O)cccc3C(C)[C@H]21 (stereo partly drawn)
MIC [1]: < 4 µg/mL
MIC [2]: < 4 µg/mL

CC1c2cccc(O)c2C(=O)C2=C(O)[C@]3(O)C(=O)C(C(N)=O)=C(O)[C@@H](N(C)C)[C@@H]3[C@@H](OC(=O)C3CCCCC3)[C@@H]21 (stereo partly drawn)
MIC [1]: < 4 µg/mL
MIC [2]: < 4 µg/mL

CC1c2cccc(O)c2C(=O)C2=C(O)[C@]3(O)C(=O)C(C(N)=O)=C(O)[C@@H](N(C)C)[C@@H]3[C@@H](OC(=O)C3CCC3)[C@@H]21 (stereo partly drawn)
MIC [1]: < 4 µg/mL
MIC [2]: < 4 µg/mL

CC(=O)O[C@@H]1[C@H]2[C@H](N(C)C)C(O)=C(C(N)=O)C(=O)[C@@]2(O)C(O)=C2C(=O)c3c(O)cccc3C(C)[C@H]21 (stereo partly drawn)
MIC [1]: < 4 µg/mL
MIC [2]: < 4 µg/mL

CC1c2ccc(C3(C)CCCC3)c(O)c2C(=O)C2=C(O)[C@]3(O)C(=O)C(C(N)=O)=C(O)[C@@H](N(C)C)[C@@H]3[C@@H](O)[C@@H]21 (stereo partly drawn)
MIC [1]: < 4 µg/mL
MIC [2]: < 4 µg/mL

CC1c2cccc(O)c2C(=O)C2=C(O)[C@]3(O)C(=O)C(C(N)=O)=C(O)[C@@H](N(C)C)[C@@H]3[C@@H](OC(=O)CCC(=O)O)[C@@H]21 (stereo partly drawn)
MIC [1]: < 4 µg/mL
MIC [2]: > 4 µg/mL

CCC(=O)O[C@@H]1[C@H]2[C@H](N(C)C)C(O)=C(C(N)=O)C(=O)[C@@]2(O)C(O)=C2C(=O)c3c(O)cccc3C(C)[C@H]21 (stereo partly drawn)
MIC [1]: > 4 µg/mL
MIC [2]: > 4 µg/mL

CCOC(=O)/C=C/c1ccc2c(c1O)C(=O)C1=C(O)[C@]3(O)C(=O)C(C(N)=O)=C(O)[C@@H](N(C)C)[C@@H]3[C@@H](O)[C@@H]1C2C (stereo partly drawn)
MIC [1]: < 4 µg/mL
MIC [2]: < 4 µg/mL

CC1c2ccc(-c3ccccc3)c(O)c2C(=O)C2=C(O)[C@]3(O)C(=O)C(C(N)=O)=C(O)[C@@H](N(C)C)[C@@H]3[C@@H](O)[C@@H]21 (stereo partly drawn)
MIC [1]: < 4 µg/mL
MIC [2]: < 4 µg/mL

CC1c2ccc(C3C=CCC3)c(O)c2C(=O)C2=C(O)[C@]3(O)C(=O)C(C(N)=O)=C(O)[C@@H](N(C)C)[C@@H]3[C@@H](O)[C@@H]21 (stereo partly drawn)
MIC [1]: < 4 µg/mL
MIC [2]: < 4 µg/mL

COc1ccc(-c2ccc3c(c2O)C(=O)C2=C(O)[C@]4(O)C(=O)C(C(N)=O)=C(O)[C@@H](N(C)C)[C@@H]4[C@@H](O)[C@@H]2C3C)cc1 (stereo partly drawn)
MIC [1]: < 4 µg/mL
MIC [2]: < 4 µg/mL

CC1c2ccc(-c3cc4ccccc4o3)c(O)c2C(=O)C2=C(O)[C@]3(O)C(=O)C(C(N)=O)=C(O)[C@@H](N(C)C)[C@@H]3[C@@H](O)[C@@H]21 (stereo partly drawn)
MIC [1]: < 4 µg/mL
MIC [2]: < 4 µg/mL

CN(C)[C@@H]1C(O)=C(C(N)=O)C(=O)[C@@]2(O)C(O)=C3C(=O)c4c(O)cccc4/C(=C\c4ccc(F)cc4)[C@H]3[C@H](O)[C@@H]12
MIC [1]: < 4 µg/mL
MIC [2]: < 4 µg/mL

CC1c2ccc(-c3ccc4c(c3)OCO4)c(O)c2C(=O)C2=C(O)[C@]3(O)C(=O)C(C(N)=O)=C(O)[C@@H](N(C)C)[C@@H]3[C@@H](O)[C@@H]21 (stereo partly drawn)
MIC [1]: < 4 µg/mL
MIC [2]: < 4 µg/mL

CC1c2c(-c3ccc(Cl)cc3)ccc(O)c2C(=O)C2=C(O)[C@]3(O)C(=O)C(C(N)=O)=C(O)[C@@H](N(C)C)[C@@H]3[C@@H](O)[C@@H]21 (stereo partly drawn)
MIC [1]: < 4 µg/mL
MIC [2]: < 4 µg/mL

CCOc1ccc(/C=C2\c3cccc(O)c3C(=O)C3=C(O)[C@]4(O)C(=O)C(C(N)=O)=C(O)[C@@H](N(C)C)[C@@H]4[C@@H](O)[C@@H]32)cc1
MIC [1]: < 4 µg/mL
MIC [2]: > 4 µg/mL
